Test system: Endogenous Huntingtin Protein
Assay: Endogenous Huntingtin Protein Assay (Meso Scale Discovery ELISA-based electrochemiluminescence)
Type: cell-based
Settings: MSD electrochemiluminescence, Table 1
Outline: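 MSD electrochemiluminescence sandwich ELISA: MW1 (expanded polyQ) or MAB2166 capture antibody at 1 μg/mL, samples incubated overnight at 4° C. Detection with rabbit monoclonal #5656S then SULFO-TAG anti-rabbit antibody, each 0.25 μg/mL for 1 h at room temperature.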

CCN1CCC(c2cc(F)c3cc(-c4cc(F)c5nc(C)cn5c4)nnc3c2)CC1 [Compound 144, 7-(1-ethylpiperidin-4-yl)-5-fluoro-3-(8-fluoro-2-methylimidazo[1,2-a]pyridin-6-yl)cinnoline] and CCN1CCC(c2cc(F)c3cc(-c4cc(F)c5nn(C)cc5c4)nnc3c2)CC1 [Compound 154, 7-(1-ethylpiperidin-4-yl)-5-fluoro-3-(7-fluoro-2-methyl-2H-indazol-5-yl)cinnoline] cannot be ordered by IC50: ≤ 100 nM for the first, ≤ 100 nM for the second.

Cc1cn2nc(-c3cc(F)c4cc(C5CCN(CCCn6cnc7ccccc76)CC5)nnc4c3)cc(C)c2n1 [Compound 145, 3-{1-[3-(1H-benzimidazol-1-yl)propyl]piperidin-4-yl}-7-(2,8-dimethylimidazo[1,2-b]pyridazin-6-yl)-5-fluorocinnoline] and Cc1cn2nc(-c3cc(F)c4cc(C5CCN(CCn6cnc7ccccc76)CC5)nnc4c3)cc(C)c2n1 [Compound 159, 3-{1-[2-(1H-benzimidazol-1-yl)ethyl]piperidin-4-yl}-7-(2,8-dimethylimidazo[1,2-b]pyridazin-6-yl)-5-fluorocinnoline] cannot be ordered by IC50: ≤ 100 nM for the first, ≤ 100 nM for the second.

Cc1cc2cc(-c3cc(F)c4cc(C5CCNCC5)nnc4c3)oc2c(C)n1 [Compound 146, 7-(5,7-dimethylfuro[2,3-c]pyridin-2-yl)-5-fluoro-3-(piperidin-4-yl)cinnoline] and Cc1cc2sc(-c3cc(F)c4cc(C5CCNCC5)nnc4c3)nc2c(C)n1 [Compound 149, 7-(4,6-dimethyl[1,3]thiazolo[4,5-c]pyridin-2-yl)-5-fluoro-3-(piperidin-4-yl)cinnoline] cannot be ordered by IC50: ≤ 100 nM for the first, ≤ 100 nM for the second.

CCN1CCC(c2cc3c(F)cc(-c4nc5c(C)nc(C)cc5s4)cc3nn2)CC1 [Compound 147, 7-(4,6-dimethyl[1,3]thiazolo[4,5-c]pyridin-2-yl)-3-(1-ethylpiperidin-4-yl)-5-fluorocinnoline] and CCN1CCC(c2cc3c(F)cc(-c4cc(C)c5nc(C)oc5n4)cc3nn2)CC1 [Compound 152, 7-(2,7-dimethyl[1,3]oxazolo[5,4-b]pyridin-5-yl)-3-(1-ethylpiperidin-4-yl)-5-fluorocinnoline] cannot be ordered by IC50: 100 to 500 nM for the first, ≤ 100 nM for the second.

Cc1nc2c(C)cc(-c3cc(F)c4cc(C5CCNCC5)nnc4c3)nc2o1 [Compound 148, 7-(2,7-dimethyl[1,3]oxazolo[5,4-b]pyridin-5-yl)-5-fluoro-3-(piperidin-4-yl)cinnoline] and Cc1cc(-c2cc(F)c3cc(C4CCNCC4)nnc3c2)nc2cn(C)nc12 [Compound 162, 7-(2,7-dimethyl-2H-pyrazolo[4,3-b]pyridin-5-yl)-5-fluoro-3-(piperidin-4-yl)cinnoline] cannot be ordered by IC50: ≤ 100 nM for the first, ≤ 100 nM for the second.

Cc1cn2nc(-c3cc(F)c4cc(C5CCNCC5)nnc4c3)cc(OCCCn3cnc4ccccc43)c2n1 [Compound 150, 7-{8-[3-(1H-benzimidazol-1-yl)propoxy]-2-methylimidazo[1,2-b]pyridazin-6-yl}-5-fluoro-3-(piperidin-4-yl)cinnoline] and COc1cc(-c2cc(F)c3cc(C4CCNCC4)nnc3c2)nc2cn(C)nc12 [Compound 163, 5-fluoro-7-(7-methoxy-2-methyl-2H-pyrazolo[4,3-b]pyridin-5-yl)-3-(piperidin-4-yl)cinnoline] cannot be ordered by IC50: ≤ 100 nM for the first, ≤ 100 nM for the second.

Cn1cc2cc(-c3cc4c(F)cc(C5CCNCC5)cc4nn3)cc(F)c2n1 [Compound 151, 5-fluoro-3-(7-fluoro-2-methyl-2H-indazol-5-yl)-7-(piperidin-4-yl)cinnoline] and Cc1cc(-c2cc3c(F)cc(C4=CCNCC4)cc3nn2)cc2cn(C)nc12 [Compound 157, 3-(2,7-dimethyl-2H-indazol-5-yl)-5-fluoro-7-(1,2,3,6-tetrahydropyridin-4-yl)cinnoline] cannot be ordered by IC50: ≤ 100 nM for the first, ≤ 100 nM for the second.

CCN1CC=C(c2cc(F)c3cc(-c4cc(F)c5nn(C)cc5c4)nnc3c2)CC1 [Compound 153, 7-(1-ethyl-1,2,3,6-tetrahydropyridin-4-yl)-5-fluoro-3-(7-fluoro-2-methyl-2H-indazol-5-yl)cinnoline] and Cn1cc2cc(-c3ncc4cc(C5=CCNCC5)cc(F)c4n3)cc(F)c2n1 [Compound 165, 8-fluoro-2-(7-fluoro-2-methyl-2H-indazol-5-yl)-6-(1,2,3,6-tetrahydropyridin-4-yl)quinazoline] cannot be ordered by IC50: ≤ 100 nM for the first, ≤ 100 nM for the second.

Cc1cn2nc(-c3cc(F)c4cc(C5CC(C)N(CCO)C(C)C5)nnc4c3)cc(C)c2n1 (stereo not drawn) [Compound 155, 2-{(25,65)-4-[7-(2,8-dimethylimidazo[1,2-b]pyridazin-6-yl)-5-fluorocinnolin-3-yl]-2,6-dimethylpiperidin-1-yl}ethan-1-ol] and Cc1cn2nc(-c3cc(F)c4cc(C5C[C@@H](C)N(CCF)[C@@H](C)C5)nnc4c3)cc(C)c2n1 (stereo partly drawn) [Compound 170, 7-(2,8-dimethylimidazo[1,2-b]pyridazin-6-yl)-5-fluoro-3-[(2R,6S)-1-(2-fluoroethyl)-2,6-dimethylpiperidin-4-yl]cinnoline] cannot be ordered by IC50: ≤ 100 nM for the first, 100 to 500 nM for the second.

Cc1cn2cc(-c3cc4c(F)cc(C5=CCNCC5)cc4nn3)cc(C)c2n1 [Compound 156, 3-(2,8-dimethylimidazo[1,2-a]pyridin-6-yl)-5-fluoro-7-(1,2,3,6-tetrahydropyridin-4-yl)cinnoline] and Cc1cn2nc(-c3cc4c(F)cc(C5=CCNCC5)cc4nn3)cc(C)c2n1 [Compound 167, 3-(2,8-dimethylimidazo[1,2-b]pyridazin-6-yl)-5-fluoro-7-(1,2,3,6-tetrahydropyridin-4-yl)cinnoline] cannot be ordered by IC50: ≤ 100 nM for the first, ≤ 100 nM for the second.

Cc1cn2nc(-c3cc(F)c4cc(C5CCN(CCCN(C)C)CC5)nnc4c3)cc(C)c2n1 [Compound 158, 3-{4-[7-(2,8-dimethylimidazo[1,2-b]pyridazin-6-yl)-5-fluorocinnolin-3-yl]piperidin-1-yl}-N,N-dimethylpropan-1-amine] and Cc1cn2nc(-c3cc(F)c4cc(C5CCN(CCCn6cccn6)CC5)nnc4c3)cc(C)c2n1 [Compound 160, 7-(2,8-dimethylimidazo[1,2-b]pyridazin-6-yl)-5-fluoro-3-{1-[3-(1H-pyrazol-1-yl)propyl]piperidin-4-yl}cinnoline] cannot be ordered by IC50: ≤ 100 nM for the first, ≤ 100 nM for the second.

Cc1cn2nc(-c3cc(F)c4cc(C5C[C@@H](C)N(C)[C@@H](C)C5)nnc4c3)cc(C)c2n1 (stereo partly drawn) [Compound 161] and CCN1[C@H](C)CC(c2cc3c(F)cc(-c4cc(C)c5nc(C)cn5n4)cc3nn2)C[C@@H]1C (stereo partly drawn) [Compound 168, 7-(2,8-dimethylimidazo[1,2-b]pyridazin-6-yl)-3-[(2R,6S)-1-ethyl-2,6-dimethylpiperidin-4-yl]-5-fluorocinnoline] cannot be ordered by IC50: ≤ 100 nM for the first, 100 to 500 nM for the second.

CCN1CCC(c2cc3c(F)cc(-c4cc(C)c5nn(C)cc5n4)cc3nn2)CC1 [Compound 164, 7-(2,7-dimethyl-2H-pyrazolo[4,3-b]pyridin-5-yl)-3-(1-ethylpiperidin-4-yl)-5-fluorocinnoline] and Cc1cn2nc(-c3cc(F)c4cc(C5CC6CC[C@@H](C5)N6)nnc4c3)cc(C)c2n1 (stereo partly drawn) [Compound 169, 3-[(1R,3r,5S)-8-azabicyclo[3.2.1]octan-3-yl]-7-(2,8-dimethylimidazo[1,2-b]pyridazin-6-yl)-5-fluorocinnoline] cannot be ordered by IC50: ≤ 100 nM for the first, ≤ 100 nM for the second.

With Cn1cc2cc(-c3ccc4cc(C5=CCNCC5)cc(F)c4n3)cc(F)c2n1 [Compound 166, 8-fluoro-2-(7-fluoro-2-methyl-2H-indazol-5-yl)-6-(1,2,3,6-tetrahydropyridin-4-yl)quinoline] the IC50 was ≤ 100 nM.
